Measurements: patent US10961200B2, “Small molecule inhibitors of lactate dehydrogenase and methods of use thereof” (THE UNITED STATES OF AMERICA, AS REPRESENTED BY THE …, priority 2014, dated 2021)
Where two headings read alike, the source gives them in different places.

Target: Human LDHA (Homo sapiens (Human), UniProt P00338)
Assay: human LDHA primary biochemical assay (resazurin/diaphorase coupled, fluorescence)
Excerpt: Test compounds were placed in a Greiner Bio-One (Monroe, N.C.) 1536-well black solid bottom assay plate. 200 millimolar (mM) Tris HCl, pH 7.4, 100 micromolar […] EDTA and 0.01% TWEEN-20™, final concentration, was used as the assay buffer. The LDHA reagent was 2 nanomolar (nM) Human LDHA (Meridian Life Science, Inc., Memphis, Tenn.), final concentration, in assay buffer.

[1] = LDHA inhibitory activity, assay of Example 1, activity level classes
[2] = read-out: Inhibitory activity IC50
[3] = LDHA inhibitory activity, activity level based on IC50 (Table 7)

Row | IC50 [2] [µM] | SMILES | IC50 [1] [µM] | other results
1 | – | CCOC(=O)c1csc(-n2nc(-c3cccc(-c4ccccc4)c3)c(Cc3ccc(S(N)(=O)=O)cc3)c2CC2CC2)n1 [Compound 279] | 1 to 57 | –
2 | 1 to 57 | Cc1ccc(-c2cccc(-c3c(Cc4ccc([S+](N)(=O)[O-])cc4)c(CC4CC4)nn3-c3nc(C(=O)O)cs3)c2)cc1 [Compound 280] | – | –
3 | – | Cc1ccc(-c2cccc(-c3nn(-c4nc(C(=O)O)cs4)c(CC4CC4)c3Cc3ccc(S(N)(=O)=O)cc3F)c2)cc1 [Compound 282] | < 0.1 | –
4 | 1 to 57 | Cc1ccc(-c2cc(-c3c(Cc4ccc([S+](N)(=O)[O-])cc4)c(CC4CC4)nn3-c3nc(C(=O)O)cs3)ccc2F)cc1 [Compound 283] | – | –
5 | – | Cc1ccc(-c2cc(-c3c(Cc4ccc(S(N)(=O)=O)cc4F)c(CC4CC4)nn3-c3nc(C(=O)O)cs3)ccc2F)cc1 [Compound 285] | 1 to 57 | –
6 | 1 to 57 | Cc1ccc(-c2cccc(-c3c(Cc4ccc([S+](N)(=O)[O-])c(F)c4)c(CC4CC4)nn3-c3nc(C(=O)O)cs3)c2)cc1 [Compound 286] | – | –
7 | 1 to 57 | Cc1ccc(-c2cc(-c3c(Cc4ccc([S+](N)(=O)[O-])c(F)c4)c(CC4CC4)nn3-c3nc(C(=O)O)cs3)ccc2F)cc1 [Compound 287] | – | –
8 | 1 to 57 | N[S+](=O)([O-])c1ccc(Cc2c(CC3CC3)nn(-c3nc(C(=O)O)cs3)c2-c2cccc(-c3ccccc3)c2)c(F)c1 [Compound 289] | – | –
9 | 1 to 57 | N[S+](=O)([O-])c1ccc(Cc2c(CC3CC3)nn(-c3nc(C(=O)O)cs3)c2-c2cccc(-c3ccccc3)c2)cc1F [Compound 291] | – | –
10 | 1 to 57 | N[S+](=O)([O-])c1ccc(Cc2c(CC3CC3)nn(-c3nc(C(=O)O)cs3)c2-c2ccc(F)c(-c3ccc(F)cc3)c2)cc1 [Compound 292] | – | –
11 | 1 to 57 | N[S+](=O)([O-])c1ccc(Cc2c(CC3CC3)nn(-c3nc(C(=O)O)cs3)c2-c2ccc(F)c(-c3ccc(C4CC4)cc3)c2)cc1 [Compound 293] | – | –
12 | 1 to 57 | N[S+](=O)([O-])c1ccc(Cc2c(CC3CC3)nn(-c3nc(C(=O)O)cs3)c2-c2ccc(F)c(Br)c2)cc1 [Compound 295] | – | –
13 | – | CCOC(=O)c1csc(-n2nc(-c3cccc(-c4ccccc4)c3)c(Cc3ccc(S(N)(=O)=O)cc3)c2C2(C(F)(F)F)CC2)n1 [Compound 297] | > 57 | –
14 | – | NS(=O)(=O)c1ccc(Cc2c(-c3cccc(-c4ccccc4)c3)nn(-c3nc(C(=O)O)cs3)c2C2(C(F)(F)F)CC2)cc1 [Compound 299] | 1 to 57 | –
15 | – | NS(=O)(=O)c1ccc(Cc2c(-c3cccc(-c4ccccc4)c3)nn(-c3nc(C(=O)O)cs3)c2C2(C(F)(F)F)CC2)c(F)c1 [Compound 300] | 0.1 to 1 | –
16 | 1 to 57 | N[S+](=O)([O-])c1ccc(Cc2c(C3(C(F)(F)F)CC3)nn(-c3nc(C(=O)O)cs3)c2-c2cccc(-c3ccccc3)c2)cc1F [Compound 301] | – | –
17 | – | NS(=O)(=O)c1ccc(Cc2c(-c3cccc(-c4ccccc4)c3)nn(-c3nc(C(=O)O)cs3)c2C2(C(F)(F)F)CC2)cc1F [Compound 302] | 1 to 57 | –
18 | 1 to 57 | N[S+](=O)([O-])c1ccc(Cc2c(CC(F)(F)F)nn(-c3nc(C(=O)O)cs3)c2-c2cccc(-c3ccccc3)c2)cc1 [Compound 303] | – | –
19 | 1 to 57 | CC(C)c1ccc(-c2cc(-c3c(Cc4ccc([S+](N)(=O)[O-])cc4)c(CC4CC4)nn3-c3nc(C(=O)O)cs3)ccc2F)cc1 [Compound 305] | – | –
20 | 1 to 57 | N[S+](=O)([O-])c1ccc(Cc2c(CC3CC3)nn(-c3nc(C(=O)O)cs3)c2-c2ccc(F)c(-c3ccc(F)cc3)c2)c(F)c1 [Compound 308] | – | –
21 | – | Cc1ccc(-c2cccc(-c3nn(-c4nc(C(=O)O)cs4)c(C(F)(F)F)c3Cc3ccc(S(N)(=O)=O)cc3)c2)cc1 [Compound 311] | < 0.1 | –
22 | – | N[S+](=O)([O-])c1ccc(Cc2c(-c3cccc(-c4ccc(F)cc4)c3)nn(-c3nc(C(=O)O)cs3)c2C(F)(F)F)cc1 [Compound 312] | < 0.1 | –

Row | IC50 [2] [µM] | SMILES | IC50 [1] [µM] | other results
23 | – | N[S+](=O)([O-])c1ccc(Cc2c(-c3cccc(-c4cccc(F)c4)c3)nn(-c3nc(C(=O)O)cs3)c2C(F)(F)F)cc1 [Compound 313] | < 0.1 | –
24 | – | COc1cccc(-c2cccc(-c3nn(-c4nc(C(=O)O)cs4)c(C(F)(F)F)c3Cc3ccc(S(N)(=O)=O)cc3)c2)c1 [Compound 314] | < 0.1 | –
25 | – | CCOC(=O)c1csc(-n2nc(CC3CC3)c(Cc3ccc(S(N)(=O)=O)cc3F)c2-c2ccc(F)c(-c3cccc(F)c3)c2)n1 [Compound 315] | > 57 | –
26 | – | CCOC(=O)c1csc(-n2nc(-c3ccc(F)c(-c4cccc(F)c4)c3)c(Cc3ccc(S(N)(=O)=O)cc3F)c2CC2CC2)n1 [Compound 316] | 1 to 57 | –
27 | – | CCOC(=O)c1csc(-n2nc(CC3CC3)c(Cc3ccc(S(N)(=O)=O)c(F)c3)c2-c2ccc(F)c(-c3cccc(F)c3)c2)n1 [Compound 317] | > 57 | –
28 | – | CCOC(=O)c1csc(-n2nc(-c3ccc(F)c(-c4cccc(F)c4)c3)c(Cc3ccc(S(N)(=O)=O)c(F)c3)c2CC2CC2)n1 [Compound 318] | > 57 | –
29 | – | CCOC(=O)c1csc(-n2nc(CC3CC3)c(Cc3ccc(S(N)(=O)=O)cc3F)c2-c2ccc(F)c(-c3cccc(OC)c3)c2)n1 [Compound 319] | > 57 | –
30 | – | CCOC(=O)c1csc(-n2nc(-c3ccc(F)c(-c4cccc(OC)c4)c3)c(Cc3ccc(S(N)(=O)=O)cc3F)c2CC2CC2)n1 [Compound 320] | > 57 | –
31 | – | CCOC(=O)c1csc(-n2nc(CC3CC3)c(Cc3ccc(S(N)(=O)=O)c(F)c3)c2-c2ccc(F)c(-c3cccc(OC)c3)c2)n1 [Compound 321] | > 57 | –
32 | – | CCOC(=O)c1csc(-n2nc(-c3ccc(F)c(-c4cccc(OC)c4)c3)c(Cc3ccc(S(N)(=O)=O)c(F)c3)c2CC2CC2)n1 [Compound 322] | 1 to 57 | –
33 | 1 to 57 | N[S+](=O)([O-])c1ccc(Cc2c(CC3CC3)nn(-c3nc(C(=O)O)cs3)c2-c2ccc(F)c(-c3cccc(F)c3)c2)c(F)c1 [Compound 323] | – | –
34 | – | N[S+](=O)([O-])c1ccc(Cc2c(CC3CC3)nn(-c3nc(C(=O)O)cs3)c2-c2ccc(F)c(-c3cccc(F)c3)c2)cc1F [Compound 325] | 1 to 57 | –
35 | – | COc1cccc(-c2cc(-c3nn(-c4nc(C(=O)O)cs4)c(CC4CC4)c3Cc3ccc(S(N)(=O)=O)cc3F)ccc2F)c1 [Compound 328] | < 0.1 | –
36 | 1 to 57 | COc1cccc(-c2cc(-c3c(Cc4ccc([S+](N)(=O)[O-])c(F)c4)c(CC4CC4)nn3-c3nc(C(=O)O)cs3)ccc2F)c1 [Compound 329] | – | –
37 | – | CCOC(=O)c1csc(-n2nc(-c3cccc(OC4CCCC4)c3)c(Cc3ccc(S(N)(=O)=O)c(F)c3)c2CC2CC2)n1 [Compound 333] | 1 to 57 | –
38 | – | CCOC(=O)c1csc(-n2nc(-c3cccc(OC4CCCC4)c3)c(Cc3ccc(S(N)(=O)=O)cc3F)c2CC2CC2)n1 [Compound 335] | 1 to 57 | –
39 | – | NS(=O)(=O)c1ccc(Cc2c(-c3cccc(OCc4ccccc4)c3)nn(-c3nc(C(=O)O)cs3)c2CC2CC2)cc1 [Compound 339] | – | IC50 [3]: < 0.1 µM
40 | – | NS(=O)(=O)c1ccc(Cc2c(-c3cccc(OCc4ccccc4)c3)nn(-c3nc(C(=O)O)cs3)c2CC2CC2)cc1F [Compound 340] | – | IC50 [3]: < 0.1 µM
41 | – | NS(=O)(=O)c1ccc(Cc2c(-c3cccc(OCc4ccccc4)c3)nn(-c3nc(C(=O)O)cs3)c2CC2CC2)c(F)c1 [Compound 341] | – | IC50 [3]: < 0.1 µM
42 | – | N[S+](=O)([O-])c1ccc(Cc2c(CC3CC3)nn(-c3nc(C(=O)O)cs3)c2-c2cccc(OCc3ccccc3)c2)cc1 [Compound 342] | – | IC50 [3]: 1 to 57 µM
43 | – | CCOC(=O)c1csc(-n2nc(-c3ccc(F)c(-c4ccc(C)cc4)c3)c(Cc3ccc(S(N)(=O)=O)c(F)c3)c2CC2CC2)n1 [Compound 343] | – | IC50 [3]: 1 to 57 µM
